For 28 compounds, IC50 results are on record in US20170334899A1, “AMINO-SUBSTITUTED ISOTHIAZOLES” (Bayer Pharma Aktiengesellschaft, priority 2014, published 2017).

In the assay the test system is human cervical tumor cell line HeLa (ATCC CCL-2). Nature of the assay: SAC-Formation - Nocodazole-Induced Assay. The format is cell-based. To be noted: 24 h, HeLa cells, nocodazole 0.1 μg/ml together with test compound, decrease of mitotic cells (phospho-histone H3 Ser10). A digest of the protocol: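 Loss of phospho-histone H3 Ser10-positive cells, counted against Hoechst-stained nuclei by high-content imaging, marked mitotic breakthrough. Compounds (0.005–20 μM, 0.5% DMSO) were co-dosed with 0.1 μg/ml nocodazole onto HeLa cells for 24 h at 37 °C. Curves were fitted with a four-parameter Hill equation.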

What is called IC50 is the point on the concentration scale where inhibition reaches its midpoint. In the case of `COC(=O)CNC(=O)c1cccc(NC(=O)c2c(C)nsc2Nc2cnc3ccccc3n2)c1` [Example 100, Methyl N-[3-({[3-methyl-5-(quinoxalin-2-ylamino)-1,2-thiazol-4-yl]carbonyl}amino)-benzoyl]glycinate], the IC50 (Homo sapiens, HeLa) is 1500 nM.

On to `Cc1nsc(Nc2cnc(C(F)(F)F)cn2)c1C(=O)Nc1ccc(OC2CCN(CCF)CC2)c(F)c1` [Example 162, N-(3-fluoro-4-{[1-(2-fluoroethyl)piperidin-4-yl]oxy}phenyl)-3-methyl-5-{[5-(trifluoromethyl)pyrazin-2-yl]amino}-1,2-thiazole-4-carboxamide], for which the IC50 (Homo sapiens, HeLa) was determined as 160 nM.

As for `Cc1nsc(Nc2cnc(C(F)(F)F)cn2)c1C(=O)Nc1ccc(C(=O)NC2CCN(CC(F)(F)F)CC2)cc1` [Example 165, 3-methyl-N-(4-{[1-(2,2,2-trifluoroethyl)piperidin-4-yl]carbamoyl}phenyl)-5-{[5-(trifluoromethyl)pyrazin-2-yl]amino}-1,2-thiazole-4-carboxamide], under “Homo sapiens, HeLa”, the IC50 is 240 nM.

In the case of `Cc1nsc(Nc2cnc(C(F)(F)F)cn2)c1C(=O)Nc1ccc(OC2CCN(C(C)C)CC2)nc1` [Example 160, N-{6-[(1-isopropylpiperidin-4-yl)oxy]pyridin-3-yl}-3-methyl-5-{[5-(trifluoromethyl)pyrazin-2-yl]amino}-1,2-thiazole-4-carboxamide], where the note is “Homo sapiens, HeLa”, the IC50 was 2000 nM.

As for `CCNS(=O)(=O)c1ccc(NC(=O)c2c(C)nsc2Nc2cnc3ccccc3n2)cc1` [Example 116, N-[4-(Ethylsulfamoyl)phenyl]-3-methyl-5-(quinoxalin-2-ylamino)-1,2-thiazole-4-carboxamide], the IC50 (Homo sapiens, HeLa) is 810 nM.

As for `Cc1nsc(Nc2cnc3ccccc3n2)c1C(=O)Nc1ccc(C(=O)N2CCN(CC(F)F)CC2)cc1` [Example 157, N-(4-{[4-(2,2-difluoroethyl)piperazin-1-yl]carbonyl}phenyl)-3-methyl-5-(quinoxalin-2-ylamino)-1,2-thiazole-4-carboxamide], the IC50 (Homo sapiens, HeLa) came out at 1700 nM.

Take `Cc1nsc(Nc2cnc(C(F)(F)F)cn2)c1C(=O)Nc1ccc(OC[C@@H]2CCN(CC(F)F)C2)nc1` [Example 127, N-(6-{[(3R)-1-(2,2-difluoroethyl)pyrrolidin-3-yl]methoxy}pyridin-3-yl)-3-methyl-5-{[5-(trifluoromethyl)pyrazin-2-yl]amino}-1,2-thiazole-4-carboxamide]: the IC50 (Homo sapiens, HeLa) is 53 nM.

For `Cc1nsc(Nc2cnc(C(F)(F)F)cn2)c1C(=O)Nc1ccc(OC[C@@H]2CCN(CC(F)(F)F)C2)nc1` [Example 128, 3-Methyl-N-(6-{[(3R)-1-(2,2,2-trifluoroethyl)pyrrolidin-3-yl]methoxy}pyridin-3-yl)-5-{[5-(trifluoromethyl)pyrazin-2-yl]amino}-1,2-thiazole-4-carboxamide], under “Homo sapiens, HeLa”, the IC50 stood at 15 nM.

As for `Cc1nsc(Nc2cnc3cc(F)ccc3n2)c1C(=O)Nc1ccc(S(N)(=O)=O)cc1` [Example 149, 5-[(6-fluoroquinoxalin-2-yl)amino]-3-methyl-N-(4-sulfamoylphenyl)-1,2-thiazole-4-carboxamide], the IC50 (Homo sapiens, HeLa) was determined as 470 nM.

As for `Cc1nsc(Nc2cnc(C(F)(F)F)cn2)c1C(=O)Nc1ccc(F)c(C(N)=O)c1` [Example 151, N-(3-carbamoyl-4-fluorophenyl)-3-methyl-5-{[5-(trifluoromethyl)pyrazin-2-yl]amino}-1,2-thiazole-4-carboxamide], under “Homo sapiens, HeLa”, the IC50 came to 290 nM.

On to `Cc1nsc(Nc2cnc3ccccc3n2)c1C(=O)Nc1cccc(C(=O)N[C@H](C(=O)O)[C@@H](C)OC(C)(C)C)c1` [Example 104, O-tert-Butyl-N-[3-({[3-methyl-5-(quinoxalin-2-ylamino)-1,2-thiazol-4-yl]-carbonyl}amino)benzoyl]threonine], for which, for the setting “Homo sapiens, HeLa”, the half-maximal inhibitory concentration (IC50) was determined as 1800 nM.

Turning to `Cc1nsc(Nc2cc(C#N)ccn2)c1C(=O)Nc1ccc(Oc2cccnc2)nc1` [Example 119, 5-[(4-Cyanopyridin-2-yl)amino]-3-methyl-N-[6-(pyridin-3-yloxy)pyridin-3-yl]-1,2-thiazole-4-carboxamide], the IC50 (Homo sapiens, HeLa) worked out at 4500 nM.

`Cc1nsc(Nc2ccc(C#N)cn2)c1C(=O)Nc1ccc(C(=O)OC(C)(C)C)cc1` [Example 98, tert-Butyl 4-[({5-[(5-cyanopyridin-2-yl)amino]-3-methyl-1,2-thiazol-4-yl}carbonyl)-amino]benzoate]: the IC50 (Homo sapiens, HeLa) is 3.8 nM.

In the case of `Cc1nsc(Nc2cnc3ccccc3n2)c1C(=O)Nc1ccc(NC2CC2)nc1` [Example 172, N-[6-(cyclopropylamino)pyridin-3-yl]-3-methyl-5-(quinoxalin-2-ylamino)-1,2-thiazole-4-carboxamide], the IC50 (Homo sapiens, HeLa) is 3500 nM.

For `Cc1nsc(Nc2cnc(C(F)(F)F)cn2)c1C(=O)Nc1ccc(OC[C@H]2CCN(CC(F)(F)F)C2)nc1` (racemic) [Example 133, 3-Methyl-N-(6-{[(SR)-1-(2,2,2-trifluoroethyl)pyrrolidin-3-yl]methoxy}pyridin-3-yl)-5-{[5-(trifluoromethyl)pyrazin-2-yl]amino}-1,2-thiazole-4-carboxamide], where the note is “Homo sapiens, HeLa”, the IC50 amounted to 27 nM.

Consider `Cc1nsc(Nc2cnc(C(F)(F)F)cn2)c1C(=O)Nc1ccc(OC[C@H]2CCN(CC(F)F)C2)nc1` [Example 132, N-(6-{[(3S)-1-(2,2-difluoroethyl)pyrrolidin-3-yl]methoxy}pyridin-3-yl)-3-methyl-5-{[5-(trifluoromethyl)pyrazin-2-yl]amino}-1,2-thiazole-4-carboxamide], for which the IC50 (Homo sapiens, HeLa) is 27 nM.

Regarding `Cc1nsc(Nc2cnc(C(F)(F)F)cn2)c1C(=O)Nc1ccc(F)c(OCC2CCCN(CC(F)F)C2)c1` (stereo not shown) [Example 335, N-(3-{[1-(2,2-difluoroethyl)piperidin-3-yl]methoxy}-4-fluorophenyl)-3-methyl-5-{[5-(trifluoromethyl)pyrazin-2-yl]amino}-1,2-thiazole-4-carboxamide], the half-maximal inhibitory concentration (IC50) was found to be 55 nM.

As to `Cc1nsc(Nc2cnc(C(F)(F)F)cn2)c1C(=O)Nc1ccc(OC2CCN(CCC(F)(F)F)CC2)nc1` [Example 10, 3-Methyl-5-{[5-(trifluoromethyl)pyrazin-2-yl]amino}-N-(6-{[1-(3,3,3-trifluoropropyl)-piperidin-4-yl]oxy}pyridin-3-yl)-1,2-thiazole-4-carboxamide], the IC50 is 260 nM.

`Cc1nsc(Nc2cnc3ccccc3n2)c1C(=O)Nc1ccc(N2CCOCC2)nc1` [Example 169, 3-methyl-N-[6-(morpholin-4-yl)pyridin-3-yl]-5-(quinoxalin-2-ylamino)-1,2-thiazole-4-carboxamide]: the IC50 (Homo sapiens, HeLa) is 2500 nM.

Consider `Cc1nsc(Nc2cnc(C(F)(F)F)cn2)c1C(=O)Nc1ccc(OCC2CCN(CCC(F)(F)F)C2)nc1` (stereo not shown) [Example 124, 3-methyl-5-{[5-(trifluoromethyl)pyrazin-2-yl]amino}-N-(6-{[1-(3,3,3-trifluoropropyl)pyrrolidin-3-yl]methoxy}pyridin-3-yl)-1,2-thiazole-4-carboxamide], for which the IC50 (Homo sapiens, HeLa) came out at 24 nM.

Take `Cc1nsc(Nc2cnc3ccccc3n2)c1C(=O)Nc1cccc(C(=O)N2CCNCC2)c1` [Example 101, 3-Methyl-N-[3-(piperazin-1-ylcarbonyl)phenyl]-5-(quinoxalin-2-ylamino)-1,2-thiazole-4-carboxamide]: under “Homo sapiens, HeLa”, the IC50 is 1800 nM.

On to `Cc1nsc(Nc2cnc(C(F)(F)F)cn2)c1C(=O)Nc1ccc(C(=O)NCCN2CCCC(F)(F)C2)cc1` [Example 153, N-(4-{[2-(3,3-difluoropiperidin-1-yl)ethyl]carbamoyl}phenyl)-3-methyl-5-{[5-(trifluoromethyl)pyrazin-2-yl]amino}-1,2-thiazole-4-carboxamide], for which the IC50 (Homo sapiens, HeLa) stood at 65 nM.

For the compound `Cc1nsc(Nc2cnc3ccccc3n2)c1C(=O)Nc1ccc(C(=O)NCCN2CCCC(F)(F)C2)cc1` [Example 156, N-(4-{[2-(3,3-difluoropiperidin-1-yl)ethyl]carbamoyl}phenyl)-3-methyl-5-(quinoxalin-2-ylamino)-1,2-thiazole-4-carboxamide], the IC50 (Homo sapiens, HeLa) came to 2100 nM.

For the compound `Cc1nsc(Nc2cncc(C(F)(F)F)n2)c1C(=O)Nc1ccc(C(=O)NCCN2CCCC(F)C2)cc1` (stereo not shown) [Example 155, N-(4-{[2-(3-fluoropiperidin-1-yl)ethyl]carbamoyl}phenyl)-3-methyl-5-{[6-(trifluoromethyl)pyrazin-2-yl]amino}-1,2-thiazole-4-carboxamide], the IC50 (Homo sapiens, HeLa) is 1700 nM.

With `CCCN1CC[C@H](Oc2ccc(NC(=O)c3c(C)nsc3Nc3cnc(C(F)(F)F)cn3)cn2)[C@H](F)C1` [Example 147, N-(6-{[(3R,4S)-3-fluoro-1-propylpiperidin-4-yl]oxy}pyridin-3-yl)-3-methyl-5-{[5-(trifluoromethyl)pyrazin-2-yl]amino}-1,2-thiazole-4-carboxamide], the IC50 (Homo sapiens, HeLa) is 5.9 nM.

In the case of `CCCCN1CC[C@@H](Oc2ccc(NC(=O)c3c(C)nsc3Nc3cnc(C(F)(F)F)cn3)cn2)[C@@H](F)C1` [Example 141, N-(6-{[(3S,4R)-1-butyl-3-fluoropiperidin-4-yl]oxy}pyridin-3-yl)-3-methyl-5-{[5-(trifluoromethyl)pyrazin-2-yl]amino}-1,2-thiazole-4-carboxamide], the half-maximal inhibitory concentration (IC50) (Homo sapiens, HeLa) worked out at 36 nM.

For `Cc1nsc(Nc2cnc3ccccc3n2)c1C(=O)Nc1cccc(C(=O)N[C@@H](CCC(N)=O)C(=O)O)c1` [Example 103, N^2-[3-({[3-Methyl-5-(quinoxalin-2-ylamino)-1,2-thiazol-4-yl]carbonyl}amino)-benzoyl]glutamine], the IC50 (Homo sapiens, HeLa) worked out at 13000 nM.

With `Cc1nsc(Nc2cnc(C(F)(F)F)cn2)c1C(=O)Nc1ccc(OC2CCN(CC(F)(F)F)CC2)c(F)c1` [Example 163, N-(3-fluoro-4-{[1-(2,2,2-trifluoroethyl)piperidin-4-yl]oxy}phenyl)-3-methyl-5-{[5-(trifluoromethyl)pyrazin-2-yl]amino}-1,2-thiazole-4-carboxamide], for the setting “Homo sapiens, HeLa”, the IC50 worked out at 61 nM.
